“And” between values parts separate entries of the source, which are not always exact repeats. Equal values may be shown once. Read-outs that look alike come from different tables or passages of the source.
Key:
[1] = tested on: ZIKV-induced caspase 3/7 activity in human astrocytes; assay: Caspase 3/7 activity assay, ZIKV-infected human astrocytes; type: cell-based; conditions: ZIKV-infected human astrocytes; for IC50: read-out: Caspase 3 (IC50, uM) Astrocyte; for Emax: read-out: Caspase 3 (efficacy, %) Astrocyte
Procedure, shortened: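 Human NPCs, SNB-19 cells or astrocytes seeded 16 h, compound added 30 min before ZIKV, then 6 h infection at 37 °C. Caspase-Glo 3/7 luminescence after 30 min at room temperature, normalized to uninfected cells (0%) and ZIKV-infected cells (100%).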

[2] = tested on: ZIKV-induced cell death in human astrocytes; assay: ATP cell viability assay for ZIKV-induced cell death, human astrocytes; type: cell-based; conditions: ZIKV-infected human astrocytes
[3] = tested on: ZIKV-induced cell death in hNPCs; assay: ATP cell viability assay for ZIKV-induced cell death, hNPCs; type: cell-based, human; conditions: ZIKV-infected hNPCs
Protocol: (§1) The reagent was reconstituted and prepared as described by the manufacturer. In order to measure the cell death caused by ZIKV infection, cells were cultured for 16 hours at 37° C. with 5% CO2 in assay plates, followed by the addition of ZIKV solution and incubation at 37° C. with 5% CO2 for 72 hours. ATPlite, the ATP monitoring reagent, was then added to the assay plates and they were incubated for 15 minutes. The resulting luminescence was measured using the ViewLux plate reader (Perkin Elmer). Data were normalized using the wells without cells as a control for 100% cell killing, and cell-containing wells without ZIKV infection were used as full cell viability (0% cell killing).
Human NPCs were seeded onto PDL coated 1536-well assay plates at 250 cells per 3 μl/well and incubated at 37° C. in 5% CO2 for 16 hours. Test compounds dissolved in DMSO were transferred to assay plates at a volume of 23 nl/well by an automated pintool workstation (Wako Automation, San Diego, Calif.). Compounds were incubated with cells for 30 minutes at 37° C. in 5% CO2, immediately followed by the addition of 2 μl/well of ZIKV. Incubation time of compound-treated cells with ZIKV varied based on assay format. Experiments measuring virus-induced caspase 3/7 activity required a 6 hour incubation of ZIKV in the presence compounds at 37° C. in 5% CO2. Following this incubation, 3.5 μl/well of caspase 3/7 reagent mixture was added to assay plates. The plates were incubated for 30 minutes at room temperature, and the resultant luminescence signal was measured using a ViewLux plate reader (Perkin Elmer). Experiments measuring virus-induced cell death required a 72-hour incubation of ZIKV in the presence of compounds at 37° C. in 5% CO2. Following this incubation, 3.5 μl/well of ATP content detection reagent was added to assay plates, incubated for 30 minutes at the room temperature, and the resultant luminescence signal was measured in a ViewLux plate reader.
as §1, with “The ATPlite luminescence assay system assay kit (PerkinElmer) was used to determine cell viability. The reagent” for “The reagent”, “by the manufacture. In order” for “by the manufacturer. In order”, “followed by addition of” for “followed by the addition of”, “plates and incubated for” for “plates and they were incubated for”, “Elmer). Data was normalized using” for “Elmer). Data were normalized using”
Human NPCs were seeded onto PDL coated 1536-well assay plates at 250 cells per 3 μl/well and incubated at 37° C. in 5% CO2 for 16 hours. Test compounds dissolved in DMSO were transferred to assay plates at a volume of 23 nl/well by an automated pintool workstation (Wako Automation, San Diego, Calif.). Compounds were incubated with cells for 30 minutes at 37° C. in 5% CO2, immediately followed by the addition of 2 μl/well of ZIKV. Incubation time of compound-treated cells with ZIKV varied based on assay format. Experiments measuring virus induced caspase 3/7 activity required a 6 hour incubation of ZIKV in the presence compounds at 37° C. in 5% CO2. Following this incubation, 3 μl/well of caspase 3/7 reagent mixture was added to assay plates, incubated for 30 minute at room temperature, and the resultant luminescence signal was measured using a ViewLux plate reader (Perkin Elmer). Experiments measuring the virus induced cell death required a 72 hour incubation of ZIKV in the presence of compounds at 37° C. in 5% CO2. Following this incubation, 3 μl/well of ATP content detection reagent was added to assay plates, incubated for 30 minute at room temperature, and the resultant luminescence signal was measured in a ViewLux plate reader.

Row | Molecule | IC50 ([1]; Astrocyte) | Emax ([1]; Astrocyte) | Cell viability (efficacy, %) Astrocyte [2] | Cell viability (efficacy, %) NPCs [3] | Caspase 3 (efficacy, %) Astrocyte [1] | IC50 [1]
1 | CN1CCN(c2cc3c(nn2)Oc2ccccc2N3C)CC1 [Pipofezine] | 11.3 µM | 56.3% | 0.0% | 0.0% | – | –
2 | Cc1cccc(/C=C/c2ccccc2)n1 [SIB 1893] | – | – | 0.0% | 0.0% | 96.2% | 12.3 µM
3 | CC(C(=O)O)c1ccc(C(=O)c2cccs2)cc1 (centres unmarked) [Suprofen] | 19.5 µM | 64.5% | 0.0% | 0.0% | – | –
4 | c1ccc2[nH]c(-c3cscn3)nc2c1 [Thiabendazole] | 10.3 µM | 81% | 0.0% | 0.0% | – | –
5 | CC(C(=O)O)c1ccc(C(=O)c2ccccc2)s1 (centres unmarked) [Tiaprofenic acid] | 6.15 µM | 88.2% | 0.0% | 0.0% | – | –
6 | COc1cccc(-c2ccc(NC(=O)C3=C(C(=O)O)CCC3)c(F)c2)c1 [Vidofludimus] | 2.91 µM | 101% | 0.0% | 0.0% | – | –
7 | Flurbiprofen axetil | – | – | 0.0% | 0.0% | 65.5% | 21.8 µM
8 | Vitamin B12 | – | – | 0.0% | 0.0% | 77.1% and 62.7% | 8.69 µM and 6.73 µM
